Reference: patent publication US20180344725A1, “QUINOLONE CHALCONE COMPOUNDS AND USES THEREOF” (priority 2015, published 2018)

Legend:
184B5 = assay: SRB-based cytotoxicity assay; format: cell-based; details: Homo sapiens, 184B5 non-cancer
Procedure: (§1) For (anti)proliferation assays, 4,000-5,000 cells/well of the 96-well clustered dish were incubated for 16 hours, as described previously (Hu et al., 2008; Skehan et al., 1990). After 16 hours, culture medium was replaced with fresh medium containing different dilutions of test compounds dissolved in DMSO. Some wells were treated with 100 μl of 10% trichloroacetic acid (TCA) as a negative control and sham (medium with dimethyl sulfoxide; DMSO) treated cells were used as a positive control. After 72 hours post-incubation, medium was removed and cells were fixed with 10% TCA at 4° C. for 1 hour. TCA was removed and cells were washed with cold tap water, and plate was air-dried, followed by addition of 50 μl of 0.4% SRB staining solution to each well. After 30 minutes incubation, SRB staining solution was removed. Cells were washed with 1% acetic acid solution, and then washed with tap water to remove unbound staining solution, followed by air-drying. 200 μl of 10 mM (pH10.5) trizma base buffer was added to each well to solubilise macromolecules. SRB stained macromolecules were determined at a 540 nm wavelength using an automated plate reader (Synergy H4 Hybrid Multi-Mode Microplate Reader, BioTek, Winooski, Vt.). Cell growth (inhibition) was calculated by the following formula:
(§2) % cells proliferation=[(AT−CT)/(ST−CT)]×100
(§3) wherein AT=absorbance of treated cells, CT=absorbance of negative control cells, and ST=absorbance of sham treated cells. IC50 values were calculated from sigmoidal dose-response curves generated by two independent biological replicates, with quadruplicate in each set by using Graph Pad Prism v.5.04 software. […] The combinational index (CI) was calculated as described previously (Chou 2006). If the CI values were less than, equal to or more than 1, it indicates a synergistic, additive or antagonistic effect respectively (Chou 2006). CI values were determined from four independent experiments.

HeLa = assay: SRB-based cytotoxicity assay; format: cell-based; details: for IC50: HeLa
Procedure: as §1, §2, §3

MCF-10A = assay: SRB-based cytotoxicity assay; format: cell-based; details: for IC50: Homo sapiens; for Cell survival rate: MCF10A, 0.39 μM
Procedure: as §1, §2, §3

RPMI-8226 (myeloma) = assay: SRB-based cytotoxicity assay; format: cell-based; details: 72 hours
Procedure: as §1, §2, §3

KB-C-2 = assay: SRB-based cytotoxicity assay, single and combination with paclitaxel; format: cell-based, human; details: for IC50: Homo sapiens, KB-C2, KB-C-2, multidrug-resistant; for Resistance (fold): KB-C-2 versus KB-C-1
Procedure: 1845B5 and MCF-10A non-cancer breast cell lines were cultured in DME/F12 medium supplemented with 10% fetal bovine serum, antibiotics and growth factors. […] The human small cell lung carcinoma H69 cell line and its multidrug-resistant MRP1-overexpressing isogenic H69AR cell line were purchased from ATCC. […] H69 cells grow as large multi-cell aggregates, making it difficult to accurately count cell numbers. […] The IL-6 dependent bortezomib-resistant ANBL6-BR cell line was further supplemented with 1 ng/ml of IL-6. The MCF10AT1 and MCF10CA1a cell lines are isogenic to the MCF10A cell line, and obtained from Dr. Valerie Weaver at the Center for Bioengineering and Tissue Regeneration, UCSF, CA, USA. […] The drug-resistant cells were cultured in the absence of drug for at least one passage before carrying out experiments. All cells were maintained in a humidified incubator at 37° C. […] Cell line authentication was performed using short tandem repeat (STR) profiling. […] Some wells were treated with 100 μl of 10% trichloroacetic acid (TCA) as a negative control and sham (medium with dimethyl sulfoxide; DMSO) treated cells were used as a positive control. […] TCA was removed and cells were washed with cold tap water, and plate was air-dried, followed by addition of 50 μl of 0.4% SRB staining solution to each well. After 30 minutes incubation, SRB staining solution was removed. Cells were washed with 1% acetic acid solution, and then washed with tap water to remove unbound staining solution, followed by air-drying. 200 μl of 10 mM (pH10.5) trizma base buffer was added to each well to solubilise macromolecules. […] Cell growth (inhibition) was calculated by the following formula: % cells proliferation=[(AT-CT)/(ST-CT)]×100 wherein AT=absorbance of treated cells, CT=absorbance of negative control cells, and ST=absorbance of sham treated cells. […] CI values were determined from four independent experiments.

purified porcine tubulin = assay: Microtubule polymerization assay; format: biochemical; details: 1.0 mM GTP, 1 hour at 37° C.
Procedure: The effects of the tested CTR compounds of the present disclosure on the assembly of purified tubulin were determined using a tubulin polymerization kit according to the manufacturer's instructions (Cytoskeleton Inc., Denver, Colo.). Paclitaxel (provided in the same kit), nocodazole, and colchicine (Santa Cruz, Calif.) were used as controls for the assay. The absorbent-based assay kit is based on the principle that the light scattered by the microtubules is directly proportional to the polymer mass of the microtubules when measured at 37° C. at a wavelength of 340 nm. The fluorescence-based assay kit is on the principle that fluorescent reporter molecules are incorporated into microtubules as the polymerization process being occurred. The fluorescence enhancement was measured for one hour at one-minute intervals, at the excitation of 350 nm and the emission of 430 nm. Absorbance or fluorescence was measured with an automated plate reader (Synergy H4 Hybrid Multi-Mode Microplate Reader, Bio-Tek).

[1] = Toxicology analysis of spleen (H&E); format: in vivo, mice; parameters: key to Red Pulp (RP): Myeloid elements: ↑↑: Double and single upward arrows indicate highly and moderately increased, respectively; ↑: Double and single upward arrows indicate highly and moderately increased, respectively; details: 30 days, Paclitaxel 10 mg/kg, CTR 30 mg/kg, or Tax (5) + CTR (15)
Procedure: Animals were monitored for food and water consumption every day, and their body weights and tumor volumes were measured twice per week. Tumor volumes were measured with a digital caliper and were determined by using the following formula: ½ length×width^2. Blood samples were collected via cardiac puncture and processed further for ALT and AST measurements. The animals were then immediately euthanized by carbon dioxide. Tumors and vital organs (spleen, kidney, liver and lung) were collected and fixed in 10% buffered formalin at 4° C. overnight before being processed for paraffin embedding. The paraffin-embedded blocks were then cut into 4-5 μm thick sections. Each section of tumors and organs was stained with hematoxylin and eosin (H&E).
Changes in body weight, hemoglobin (Hb) and the amount and ratio of alanine transaminase (ALT)/aspartate transaminase (AST) were used to measure toxic effects. In addition, vital organs (liver, spleen, kidney and lung) were analyzed by […] after they were harvested, fixed, processed, paraffin-embedded, sectioned, and stained as described above.
ATH490 athymic mice were sham-treated (vehicle only) or treated with compounds of the indicated doses for 30 days, followed by toxicity analysis after spleen tissues were H & E stained. The numbers in the brackets are mg per kg of body weight. Arrows indicate the presence of macrophages in the red pulp (RP). Images were taken using a Zeiss EPI-fluorescent microscope (10× objective). Drug administration was carried out as described in Table 11.

[2] = MCF-10A non-cancer, SRB, Table 2
[3] = single agent at 0.5IC50 (CTR-17 0.325 μM; CTR-20 0.125 μM; paclitaxel 11.5 nM)
[4] = single agent at IC50 (CTR-17 0.65 μM; CTR-20 0.25 μM; paclitaxel 23 nM)
[5] = MCF-10A, MCF10A non-cancer, 72 hours, Table 4

Compound | IC50 (184B5; SRB, Table 2) [nM] | IC50 (HeLa; Homo sapiens, SRB, Table 2) [nM] | IC50 (MCF-10A; [2]) [nM] | Cell survival rate (MCF-10A; 72 hours) [%] | IC50 (RPMI-8226 (myeloma); Homo sapiens) [nM] | IC50 (KB-C-2) [nM] | Resistance (fold) (KB-C-2) | Cell survival rates (KB-C-2; [3]) | Cell survival rates (KB-C-2; [4]) | effect on tubulin/microtubule polymerization (purified porcine tubulin) | Capsule [1] | Red Pulp (RP): Myeloid elements [1] | White pulp (WP) [1] | preferentially kill cancer over non-cancer cells (HeLa; HeLa versus MCF-10A) [times] | IC50 (184B5; 72 hours, Table 4) [nM] | IC50 (HeLa; 72 hours, Table 4) [nM] | IC50 (MCF-10A; [5]) [nM] | IC50 (RPMI-8226 (myeloma); Table 4) [nM] | Cell survival rates (KB-C-2; single agent at 0.125IC50 (paclitaxel 2.875 nM)) | Cell survival rates (KB-C-2; single agent at 0.25IC50 (paclitaxel 5.75 nM))
COc1ccccc1C(=O)/C=C/c1cc2ccccc2[nH]c1=O [CTR-17, (E)-3-(3-(2-Methoxyphenyl)-3-oxoprop-1-enyl)quinolin-2(1H)-one] | 3490 ± 30 | 330 ± 60 | 3950 ± 140 | 95 | 360 ± 40 | 650 ± 160 | 1.71 | 80.0 ± 11.4 | 53.2 ± 12.6 | inhibited tubulin polymerization | Normal | elements: ↑ | Less but bigger |  |  |  |  |  |  | 
COc1ccc2[nH]c(=O)c(/C=C/C(=O)c3ccccc3OC)cc2c1 [CTR-20, (E)-6-Methoxy-3-(3-(2-methoxyphenyl)-3-oxoprop-1-enyl) quinolin-2(1H)-one] | 1240 ± 60 | 100 ± 20 | 2370 ± 210 | 75 | 230 | 250 ± 30 | 2.50 | 76.0 ± 9.6 | 56.8 ± 8.4 | inhibited tubulin polymerization | Normal | elements: ↑ | Less but bigger | ≤ 24 |  |  |  |  |  | 
COc1ccccc1C(=O)/C=C/c1cc2cccc(OC)c2[nH]c1=O [CTR-21, (E)-8-methoxy-3-(3-(2-methoxyphenyl)-3-oxoprop-1-enyl) quinolin-2(1H)-one] |  |  |  |  |  |  |  |  |  | microtubule polymerization inhibitors |  |  |  |  | 37 ± 2.5 | 11.9 ± 1.4 | 20.3 ± 2.47 | 5.34 ± 0.89 |  | 
CCOc1ccccc1C(=O)/C=C/c1cc2ccccc2[nH]c1=O [CTR-32, (E)-3-(3-(2-ethoxyphenyl)-3-oxoprop-1-enyl)quinolin-2(1H)-one] |  |  |  |  |  |  |  |  |  | microtubule polymerization inhibitors |  |  |  |  | 52 ± 7.35 | 12.9 ± 0.35 | 30.1 ± 1.61 | 6.29 ± 1.43 |  | 
CC(=O)O[C@H]1C(=O)[C@@]2(C)[C@H]([C@H](OC(=O)c3ccccc3)[C@]3(O)C[C@H](OC(=O)[C@H](O)[C@@H](NC(=O)c4ccccc4)c4ccccc4)C(C)=C1C3(C)C)[C@]1(OC(C)=O)CO[C@@H]1C[C@@H]2O [Paclitaxel, reference compound] |  |  |  |  |  |  | 11.48 | 75.9 ± 7.7 | 48.4 ± 5.8 |  | Normal | elements: ↑↑^a | Less but bigger |  |  |  |  |  | 99.6 ± 0.3 | 89.5 ± 6.0
